≈ marks a conversion by molar mass, not a printed value. Where two headings read alike, the source gives them in different places.
Tests used:
[1] = system: Candida albicans ATCC10231; test: Antifungal activity MIC; format: cell-based
[2] = biological target: T1, recombinant SrtA from S. aureus ATCC6538p (Staphylococcus aureus, UniProt Q2FV99); test: SrtA inhibition assay (fluorescence, dabcyl-LPETG-edans cleavage); format: biochemical
T1 construct: made in house; host or cells: Escherichia coli
T1 sequence (Q2FV99 whole entry): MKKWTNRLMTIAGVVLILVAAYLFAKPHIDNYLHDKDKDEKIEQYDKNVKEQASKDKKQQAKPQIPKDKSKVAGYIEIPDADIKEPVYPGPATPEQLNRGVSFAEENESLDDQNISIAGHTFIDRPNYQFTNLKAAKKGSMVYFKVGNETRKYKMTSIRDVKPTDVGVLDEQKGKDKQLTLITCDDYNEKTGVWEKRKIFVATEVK
Excerpt: The same bioassays were pursued with the new compounds and the known congeners, with a particular emphasis on SrtA inhibition. The rationale of SrtA inhibition is that this transpeptidase decorates the surfaces of Gram-positive bacteria with a diverse array of proteins that enable microbes to effectively interact with their environment, and it is not required for bacterial growth or viability. It is thus considered a promising target for the development of anti-virulence drugs aimed at interfering with important virulence mechanisms such as adhesion to host tissues. To assess the SrtA inhibitory activity of compounds 1–14, recombinant SrtA derived from S. aureus ATCC6538p was purified from Escherichia coli extracts using metal chelate-affinity chromatography. The enzyme activity was determined from the fluorescence intensity upon cleavage of a peptide substrate containing the LPETG motif.
Before evaluating the SrtA inhibitory activity of the test compounds, recombinant SrtA from S. aureus ATCC6538p was prepared according to methods described in a previous paper. The SrtA inhibitory activity of the test compounds was determined according to previously described methods with minor modifications. The reaction was carried out with 100 μL buffer (50 mM Tris-HCl, 5 mM CaCl2, and 150 mM NaCl, pH 7.5), 7.5 µM synthetic peptide dabcyl-LPETG-edans (AnaSpec, Inc., Fremont, CA, USA), 7.5 µM purified SrtA, and test samples at various concentrations. […] The SrtA inhibition assay was conducted at 37 °C for 1 h, and inhibition was quantified fluorometrically using a microplate reader (FLx800, BioTek Instruments, Winooski, VT, USA) at excitation and emission wavelengths of 350 and 495 nm, respectively. Berberine chloride and triphasiol were used as reference inhibitors of SrtA.

[3] = system: Salmonella enterica ATCC14028; test: Antibacterial activity MIC; format: cell-based; settings: ATCC14028, read-out: Antibacterial Activity MIC, Salmonella enterica
[4] = system: Enterococcus faecalis ATCC19433; test: Antibacterial activity MIC; format: cell-based; settings: ATCC19433, read-out: Antibacterial Activity MIC, Enterococcus faecalis
[5] = system: Aspergillus fumigatus HIC6094; test: Antifungal activity MIC; format: cell-based
[6] = system: Escherichia coli ATCC25922; test: Antibacterial activity MIC; format: cell-based; settings: Gram-negative; for MIC: Escherichia coli, read-out: Antibacterial Activity MIC, E. coli
[7] = system: Trichophyton mentagrophytes IFM40996; test: Antifungal activity MIC; format: cell-based
[8] = system: S. aureus strain Newman; test: Antibacterial activity MIC; format: cell-based; settings: Staphylococcus aureus, read-out: Antibacterial Activity MIC, S. aureus
[9] = system: A549 cell line; test: MTT cytotoxicity assay; format: cell-based; settings: Homo sapiens
Method: (§1) An MTT assay was performed as previously described to determine the cytotoxicity against A549 and K562 cell lines. These cancer cell lines were purchased from the Korean Cell Line Bank (KCLB), Seoul, Republic of Korea.

[10] = system: K562 cell line; test: MTT cytotoxicity assay; format: cell-based; settings: Homo sapiens
Method: as §1

[11] = system: Klebsiella pneumoniae ATCC10031; test: Antibacterial activity MIC; format: cell-based; settings: ATCC10031, read-out: Antibacterial Activity MIC, Klebsiella pneumonia
[12] = system: Enterococcus faecium ATCC19434; test: Antibacterial activity MIC; format: cell-based; settings: ATCC19434, read-out: Antibacterial Activity MIC, Enterococcus faecium
[13] = system: Trichophyton rubrum NBRC9185; test: Antifungal activity MIC; format: cell-based
[14] = MTT assay, A549, read-out: IC50 A549
[15] = MTT assay, K562, read-out: IC50 K562

Compound | MIC [1] [µg/mL] | IC50 [2] [µM] | MIC ([3]; Gram-negative) [µg/mL] | MIC ([4]; Gram-positive) [µg/mL] | MIC [5] [µg/mL] | MIC [6] [µg/mL] | MIC [7] [µg/mL] | MIC ([8]; Gram-positive, strain Newman) [µg/mL] | IC50 [9, 14] [µM] | IC50 [10, 15] [µM] | MIC ([11]; Gram-negative) [µg/mL] | MIC ([12]; Gram-positive) [µg/mL] | MIC [13] [µg/mL] | also measured
O=C1NC(c2c[nH]c3cc(Br)ccc23)CN=C1c1c[nH]c2ccccc12 (stereo in doubt) [Compound 11, (R)-6′′-debromohamacanthin A] | > 128 | 47.5 | 16 (≈ 39.3 µM) | 32 (≈ 78.6 µM) | > 128 | > 128 | > 128 | 8 (≈ 19.6 µM) | 39.6 | > 100 | 8 (≈ 19.6 µM) | 32 (≈ 78.6 µM) | > 128 | Antibacterial Activity MIC, E. coli [6]: >128 µg/mL
CO[C@@]1(C(=O)c2c[nH]c3cc(O)ccc23)N=C(c2c[nH]c3ccccc23)C(=O)N1 [Compound 1, spongosoritin A] | > 128 | > 330 | > 128 | > 128 | > 128 | > 128 | > 128 | > 128 | 77.3 | 24.2 | > 128 | > 128 | > 128 | 
CO[C@@]1(C(=O)c2c[nH]c3ccccc23)N=C(c2c[nH]c3ccccc23)C(=O)N1 [Compound 2, spongosoritin B] | > 128 | 62.7 | 128 (≈ 344 µM) | > 128 | > 128 | > 128 | > 128 | 64 (≈ 172 µM) | 55.7 | 28.5 | 128 (≈ 344 µM) | > 128 | > 128 | 
CO[C@@]1(C(=O)c2c[nH]c3ccccc23)N=C(c2c[nH]c3cc(Br)ccc23)C(=O)N1 [Compound 3, spongosoritin C] | > 128 | 43.9 | 64 (≈ 142 µM) | 128 (≈ 284 µM) | > 128 | > 128 | > 128 | 32 (≈ 70.9 µM) | 61.2 | 37.7 | > 128 | > 128 | > 128 | 
CO[C@@]1(C(=O)c2c[nH]c3cc(O)ccc23)N=C(c2c[nH]c3cc(Br)ccc23)C(=O)N1 [Compound 4, spongosoritin D] | > 128 | > 275 | 64 (≈ 137 µM) | 128 (≈ 274 µM) | > 128 | > 128 | > 128 | 16 (≈ 34.2 µM) | 70.9 | 54.2 | > 128 | 128 (≈ 274 µM) | > 128 | 
O=C(NCC(=O)c1c[nH]c2ccccc12)NC(=O)c1c[nH]c2cc(O)ccc12 [Compound 5, spongocarbamide A] | > 128 | 79.4 | > 128 | > 128 | > 128 | > 128 | > 128 | > 128 | > 100 | 92.8 | > 128 | > 128 | > 128 | 
O=C(NCC(=O)c1c[nH]c2cc(Br)ccc12)NC(=O)c1c[nH]c2cc(O)ccc12 [Compound 6, spongocarbamide B] | > 128 | 52.4 | 128 (≈ 281 µM) | > 128 | > 128 | > 128 | > 128 | 64 (≈ 141 µM) | > 100 | > 100 | > 128 | > 128 | > 128 | 
O=C(c1nc(-c2c[nH]c3ccccc23)c[nH]1)c1c[nH]c2cc(O)ccc12 [Compound 7, topsentin] | > 128 | > 374 | 64 (≈ 187 µM) | 64 (≈ 187 µM) | > 128 | > 128 | > 128 | 32 (≈ 93.5 µM) | 25.3 | 15.3 | 64 (≈ 187 µM) | 64 (≈ 187 µM) | > 128 | Antibacterial Activity MIC, E. coli [6]: >128 µg/mL
O=C(c1ncc(-c2c[nH]c3ccccc23)[nH]1)c1c[nH]c2cc(Br)ccc12 [Compound 8, isobromodeoxytopsentin] |  | 41.3 |  |  |  |  |  |  |  |  |  |  |  | 
O=C(c1ncc(-c2c[nH]c3cc(Br)ccc23)[nH]1)c1c[nH]c2ccccc12 [Compound 9, bromodeoxytopsentin] |  | 34 |  |  |  |  |  |  |  |  |  |  |  | 
O=C(c1nc(-c2c[nH]c3cc(Br)ccc23)c[nH]1)c1c[nH]c2cc(O)ccc12 [Compound 10, bromotopsentin] | > 128 | 53.2 | 16 (≈ 38 µM) | 32 (≈ 76 µM) | > 128 | > 128 | > 128 | 8 (≈ 19 µM) | 38.9 | 43.2 | 64 (≈ 152 µM) | 16 (≈ 38 µM) | > 128 | Antibacterial Activity MIC, E. coli [6]: >128 µg/mL
O=C1NC[C@H](c2c[nH]c3cc(Br)ccc23)N[C@H]1c1c[nH]c2cc(Br)ccc12 [Compound 12, (3S, 5R)-6-dibromo-trans-3,4-dihydrohamacanthin B] | > 128 | > 263 |  |  | > 128 | > 128 | > 128 |  |  |  |  |  | > 128 | MIC [3]: 8 µg/mL (≈ 16.4 µM); MIC [4]: 16 µg/mL (≈ 32.8 µM); Antibacterial Activity MIC, E. coli [6]: >128 µg/mL; MIC ([8]; NEWMAN): 8 µg/mL (≈ 16.4 µM); IC50 ([9]; A549, read-out: IC50 A549): 34.3 µM; IC50 ([10]; K562, read-out: IC50 K562): 9.7 µM; MIC [11]: 8 µg/mL (≈ 16.4 µM); MIC [12]: > 128 µg/mL
COC(=O)c1c[nH]c2ccccc12 [Compound 13, 3-carbomethoxyindole] | > 128 | 164 | > 128 | > 128 | > 128 | > 128 | > 128 | 128 (≈ 731 µM) | 59.2 | > 100 | > 128 | > 128 | > 128 | 
COC(=O)c1c[nH]c2cc(O)ccc12 [Compound 14, 6-hydroxy-3-carbomethoxyindole] | > 128 | 191 | > 128 | > 128 | > 128 | > 128 | > 128 | 128 (≈ 670 µM) | 66.8 | > 100 | > 128 | > 128 | > 128 | 
CC1(C)S[C@@H]2[C@H](NC(=O)[C@H](N)c3ccccc3)C(=O)N2[C@H]1C(=O)O [ampicillin, reference compound] |  |  | 0.25 (≈ 0.715 µM) | 0.5 (≈ 1.43 µM) |  | 8 (≈ 22.9 µM) |  | 0.13 (≈ 0.372 µM) |  |  |  | 1 (≈ 2.86 µM) |  | 
COc1ccc2cc3[n+](cc2c1OC)CCc1cc2c(cc1-3)OCO2 [berberine chloride, reference compound] |  | 87.4 |  |  |  |  |  |  |  |  |  |  |  | 
COc1cccc2c1C(=O)c1c(O)c3c(c(O)c1C2=O)C[C@@](O)(C(=O)CO)C[C@@H]3O[C@H]1C[C@H](N)[C@H](O)[C@H](C)O1 [doxorubicin, reference compound] |  |  |  |  |  |  |  |  | 0.64 | 0.92 |  |  |  | 
CN(C)[C@@H]1C(O)=C(C(N)=O)C(=O)[C@@]2(O)C(O)=C3C(=O)c4c(O)cccc4[C@@](C)(O)[C@H]3C[C@@H]12 [tetracycline, reference compound] |  |  |  |  |  |  |  |  |  |  | 0.25 (≈ 0.563 µM) |  |  | 
CC(C)C(=O)Cc1c(OCC(O)C(C)(C)O)ccc2ccc(=O)oc12 (stereo not shown) [triphasiol, reference compound] |  |  |  |  |  |  |  |  |  |  |  |  |  | IC50 ([2]; 7.5 µM SrtA, 7.5 µM dabcyl-LPETG-edans, 37 °C, 1 h, pH 7.5, read-out: IC50 Srt A): 37.9 µM

From article PMC7824209, “Bioactive Bis(indole) Alkaloids from a Spongosorites sp. Sponge” (Marine Drugs, 2020)
